Numbers after ± are expanded uncertainties.
Assay: excess molar enthalpy (molar enthalpy of mixing); xn = mol fraction of the nth substance listed
Details: 101.3 kPa, Liquid, Flow calorimetry

CCOC(=O)CC(=O)OCC [diethyl 1,3-propanedioate] + CO
excess molar enthalpy [kcal/mol]
Details	288.2 K	298.2 K	313.2 K	328.2 K
x1 = 0.05	0.066 ± 0.00191	0.0734 ± 0.00215	0.081 ± 0.00215	0.0872 ± 0.00239
x1 = 0.0996	0.123 ± 0.00287	0.133 ± 0.00311	0.146 ± 0.00335	0.161 ± 0.00382
x1 = 0.1496	0.167 ± 0.00382	0.182 ± 0.00406	0.203 ± 0.00454	0.221 ± 0.00478
x1 = 0.2011	0.205 ± 0.00454	0.224 ± 0.00478	0.249 ± 0.0055	0.274 ± 0.00598
x1 = 0.2515	0.236 ± 0.00502	0.259 ± 0.0055	0.286 ± 0.00621	0.316 ± 0.00693
x1 = 0.3009	0.261 ± 0.00574	0.286 ± 0.00621	0.318 ± 0.00693	0.349 ± 0.00741
x1 = 0.3506	0.281 ± 0.00598	0.307 ± 0.00669	0.343 ± 0.00741	0.376 ± 0.00813
x1 = 0.3988	0.299 ± 0.00645	0.325 ± 0.00693	0.361 ± 0.00765	0.394 ± 0.00837
x1 = 0.4486	0.31 ± 0.00669	0.335 ± 0.00717	0.374 ± 0.00789	0.407 ± 0.0086
x1 = 0.4993	0.313 ± 0.00669	0.341 ± 0.00741	0.378 ± 0.00813	0.408 ± 0.00884
x1 = 0.55	0.315 ± 0.00669	0.343 ± 0.00741	0.376 ± 0.00813	0.409 ± 0.00884
x1 = 0.5995	0.307 ± 0.00669	0.337 ± 0.00717	0.369 ± 0.00789	0.396 ± 0.00837
x1 = 0.6464	0.3 ± 0.00645	0.323 ± 0.00693	0.355 ± 0.00765	0.38 ± 0.00813
x1 = 0.698	0.282 ± 0.00598	0.304 ± 0.00645	0.332 ± 0.00717	0.353 ± 0.00765
x1 = 0.7453	0.261 ± 0.00574	0.283 ± 0.00621	0.303 ± 0.00645	0.316 ± 0.00669
x1 = 0.7969	0.234 ± 0.00502	0.243 ± 0.00526	0.26 ± 0.00574	0.278 ± 0.00598
x1 = 0.8536	0.19 ± 0.0043	0.184 ± 0.00406	0.202 ± 0.00454	0.213 ± 0.00478
x1 = 0.903	0.139 ± 0.00311	0.14 ± 0.00335	0.144 ± 0.00335	0.145 ± 0.00359
x1 = 0.95	0.0801 ± 0.00215	0.0772 ± 0.00215	0.0719 ± 0.00239	0.0473 ± 0.00239

CCOC(=O)CC(=O)OCC [diethyl 1,3-propanedioate] + CC(C)O
excess molar enthalpy [kcal/mol]
Details	288.2 K	298.2 K	313.2 K	328.2 K
x1 = 0.0511	0.145 ± 0.00382	0.151 ± 0.00406	0.158 ± 0.0043	0.163 ± 0.0043
x1 = 0.1001	0.244 ± 0.0055	0.263 ± 0.00598	0.277 ± 0.00645	0.292 ± 0.00669
x1 = 0.1511	0.322 ± 0.00717	0.35 ± 0.00765	0.378 ± 0.00837	0.39 ± 0.0086
x1 = 0.2012	0.387 ± 0.00837	0.419 ± 0.00908	0.449 ± 0.00956	0.473 ± 0.0103
x1 = 0.2494	0.431 ± 0.00932	0.467 ± 0.01	0.51 ± 0.011	0.531 ± 0.0115
x1 = 0.3015	0.47 ± 0.01	0.51 ± 0.011	0.557 ± 0.012	0.576 ± 0.0124
x1 = 0.3507	0.5 ± 0.0108	0.542 ± 0.0115	0.586 ± 0.0124	0.611 ± 0.0131
x1 = 0.3998	0.516 ± 0.011	0.56 ± 0.012	0.606 ± 0.0129	0.63 ± 0.0134
x1 = 0.4484	0.523 ± 0.0112	0.569 ± 0.0122	0.616 ± 0.0131	0.639 ± 0.0136
x1 = 0.5003	0.524 ± 0.0112	0.566 ± 0.0122	0.611 ± 0.0131	0.637 ± 0.0136
x1 = 0.5513	0.519 ± 0.0112	0.56 ± 0.012	0.6 ± 0.0129	0.62 ± 0.0131
x1 = 0.6007	0.501 ± 0.0108	0.539 ± 0.0115	0.582 ± 0.0124	0.597 ± 0.0127
x1 = 0.6478	0.483 ± 0.0103	0.52 ± 0.0112	0.555 ± 0.012	0.561 ± 0.012
x1 = 0.6977	0.449 ± 0.00956	0.482 ± 0.0103	0.511 ± 0.011	0.516 ± 0.011
x1 = 0.7508	0.398 ± 0.0086	0.431 ± 0.00932	0.451 ± 0.0098	0.454 ± 0.0098
x1 = 0.8007	0.345 ± 0.00741	0.379 ± 0.00813	0.391 ± 0.00837	0.387 ± 0.00837
x1 = 0.8468	0.286 ± 0.00645	0.309 ± 0.00669	0.32 ± 0.00717	0.302 ± 0.00669
x1 = 0.9023	0.185 ± 0.0043	0.219 ± 0.00502	0.213 ± 0.00502	0.202 ± 0.00478
x1 = 0.9537	0.0963 ± 0.00263	0.111 ± 0.00335	0.104 ± 0.00311	0.0935 ± 0.00287

From the NIST ThermoML archive (doi:10.1021/je9003806)
